Experimental data published in ChEMBL document CHEMBL5214998, “Development of Macrocyclic PRMT5-Adaptor Protein Interaction Inhibitors” (J Med Chem, 2022).
Numbered stars: 1 amine (or outer) side, 2 acyl side, 3 side chain; on linkers, the order of the positions; unused ones are H or OH. Bridge positions count the residues as written; N and C are the ends. Square brackets hold non-standard residues; d marks the D form. Peptide text beside a SMILES is read from it. * marks the point of attachment. FITC = O=C1OC2(c3ccc(O)cc3Oc3cc(O)ccc32)c2ccc(NC(=S)*)cc21; Phe(4-NO2) = N[C@@H](Cc1ccc([N+](=O)[O-])cc1)C(=O)O; Phe(3,4-F2) = N[C@@H](Cc1ccc(F)c(F)c1)C(=O)O; Bip = N[C@@H](Cc1ccc(-c2ccccc2)cc1)C(=O)O; Phe(4-Br) = N[C@@H](Cc1ccc(Br)cc1)C(=O)O; Phe(4-Cl) = N[C@@H](Cc1ccc(Cl)cc1)C(=O)O; Hag = O=C([C@H](CCC=[*:3])N[*:1])[*:2]; Phe(3-F) = N[C@@H](Cc1cccc(F)c1)C(=O)O; Phe(4-F) = N[C@@H](Cc1ccc(F)cc1)C(=O)O; Phe(4-I) = N[C@@H](Cc1ccc(I)cc1)C(=O)O; Gla = N[C@@H](CC(C(=O)O)C(=O)O)C(=O)O; AllylGly = C=CC[C@H](N)C(=O)O

Key:
PRMT5/MEP50 complex [1] = target: PRMT5/MEP50 complex (Homo sapiens, UniProt O14744+Q9BQA1); experiment: (§1) Binding affinity to PRMT5/MEP50 (unknown origin) assessed as dissociation constant by FITC- Competitive binding assay; assay type: protein-complex assay
PRMT5/MEP50 complex [2] = target: PRMT5/MEP50 complex (Homo sapiens, UniProt O14744); experiment: as §1; assay type: protein-complex assay
Sequence of PRMT5/MEP50 complex (Homo sapiens, UniProt O14744) (O14744 whole entry): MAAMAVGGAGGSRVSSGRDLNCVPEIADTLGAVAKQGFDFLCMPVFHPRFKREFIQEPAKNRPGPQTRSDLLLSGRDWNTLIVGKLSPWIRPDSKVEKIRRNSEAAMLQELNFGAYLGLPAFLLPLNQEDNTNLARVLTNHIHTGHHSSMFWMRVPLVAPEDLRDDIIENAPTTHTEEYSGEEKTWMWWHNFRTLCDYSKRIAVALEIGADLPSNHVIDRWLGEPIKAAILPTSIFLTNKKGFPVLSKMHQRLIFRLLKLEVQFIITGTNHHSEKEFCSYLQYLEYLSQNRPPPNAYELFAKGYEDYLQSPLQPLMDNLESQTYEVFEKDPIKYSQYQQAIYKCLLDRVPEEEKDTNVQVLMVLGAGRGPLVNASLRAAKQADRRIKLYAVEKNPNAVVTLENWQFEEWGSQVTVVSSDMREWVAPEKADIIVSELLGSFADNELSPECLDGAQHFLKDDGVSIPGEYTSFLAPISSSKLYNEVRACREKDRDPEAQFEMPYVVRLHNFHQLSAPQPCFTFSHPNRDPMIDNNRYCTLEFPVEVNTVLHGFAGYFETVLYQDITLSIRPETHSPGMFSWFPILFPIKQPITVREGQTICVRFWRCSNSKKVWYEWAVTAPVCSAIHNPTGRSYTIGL
Sequence of PRMT5/MEP50 complex (Homo sapiens, UniProt O14744) (Q9BQA1 whole entry, further chain): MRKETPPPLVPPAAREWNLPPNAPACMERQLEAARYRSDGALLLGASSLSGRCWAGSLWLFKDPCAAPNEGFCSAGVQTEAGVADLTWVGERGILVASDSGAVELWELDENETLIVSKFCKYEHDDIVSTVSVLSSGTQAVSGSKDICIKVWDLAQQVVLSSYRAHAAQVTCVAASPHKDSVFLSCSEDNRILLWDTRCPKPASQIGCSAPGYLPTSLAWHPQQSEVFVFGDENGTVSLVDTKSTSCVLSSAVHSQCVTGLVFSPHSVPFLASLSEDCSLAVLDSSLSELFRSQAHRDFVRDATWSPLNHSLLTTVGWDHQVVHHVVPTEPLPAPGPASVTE

Sequence of PRMT5/MEP50 complex (Homo sapiens, UniProt O14744+Q9BQA1) (O14744 whole entry): as the sequence (O14744 whole entry) above
Sequence of PRMT5/MEP50 complex (Homo sapiens, UniProt O14744+Q9BQA1) (Q9BQA1 whole entry): as the sequence (Q9BQA1 whole entry, further chain) above

SMILES	Kd (PRMT5/MEP50 complex [1])	Kd (PRMT5/MEP50 complex [2])
CC(C)[C@H](NC(=O)[C@H](CCCNC(=N)N)NC(=O)[C@H](CO)NC(=O)COCCOCCNC(=S)Nc1ccc2c(c1)C(=O)OC21c2ccc(O)cc2Oc2cc(O)ccc21)C(=O)N[C@H](C(=O)N1CCC[C@H]1C(=O)N[C@H]1C/C=C/C[C@H](C(=O)N[C@@H](CC(=O)O)C(=O)N[C@@H](C)C(=O)N[C@@H](CC(=O)O)C(N)=O)NC(=O)[C@H](Cc2ccccc2)NC(=O)[C@H](CCC(N)=O)NC1=O)C(C)C (stereo in doubt; form 2)	> 2000 nM	–
CC(=O)N[C@H](C(=O)N1CCC[C@H]1C(=O)NCC(=O)N[C@@H](CCC(N)=O)C(=O)N[C@@H](Cc1ccc([N+](=O)[O-])cc1)C(=O)N[C@@H](CC(=O)O)C(=O)N[C@@H](CC(=O)O)C(=O)N[C@@H](C)C(=O)N[C@@H](CC(=O)O)C(=O)N[C@@H](CCCCNC(=S)Nc1ccc2c(c1)C(=O)OC21c2ccc(O)cc2Oc2cc(O)ccc21)C(N)=O)C(C)C (Ac-VPGQ[Phe(4-NO2)]DDADK(FITC)-NH2)	–	232 nM
CC(=O)N[C@H](C(=O)N1CCC[C@H]1C(=O)NCC(=O)N[C@@H](CCC(N)=O)C(=O)N[C@@H](Cc1ccc([N+](=O)[O-])cc1)C(=O)N[C@@H](CC(=O)O)C(=O)N[C@@H](CC(=O)O)C(=O)N[C@@H](C)C(=O)N[C@@H](CC(C(=O)O)C(=O)O)C(=O)N[C@@H](CCCCNC(=S)Nc1ccc2c(c1)C(=O)OC21c2ccc(O)cc2Oc2cc(O)ccc21)C(N)=O)C(C)C (Ac-VPGQ[Phe(4-NO2)]DDA[Gla]K(FITC)-NH2)	–	78 nM
CC(=O)N[C@H](C(=O)N1CCC[C@H]1C(=O)N[C@H]1CCCCCC[C@H](C(=O)N[C@@H](CC(=O)O)C(=O)N[C@@H](C)C(=O)N[C@@H](CC(=O)O)C(=O)N[C@@H](CCCCNC(=S)Nc2ccc3c(c2)C(=O)OC32c3ccc(O)cc3Oc3cc(O)ccc32)C(N)=O)NC(=O)[C@H](Cc2ccccc2)NC(=O)[C@H](CCC(N)=O)NC1=O)C(C)C	> 2000 nM	–
CC(=O)N[C@H](C(=O)N1CCC[C@H]1C(=O)NCC(=O)N[C@@H](CCC(N)=O)C(=O)N[C@@H](Cc1cccc(F)c1)C(=O)N[C@@H](CC(=O)O)C(=O)N[C@@H](CC(=O)O)C(=O)N[C@@H](C)C(=O)N[C@@H](CC(=O)O)C(=O)N[C@@H](CCCCNC(=S)Nc1ccc2c(c1)C(=O)OC21c2ccc(O)cc2Oc2cc(O)ccc21)C(N)=O)C(C)C (Ac-VPGQ[Phe(3-F)]DDADK(FITC)-NH2)	–	654 nM
CC(C)[C@H](NC(=O)[C@H](CCCNC(=N)N)NC(=O)[C@H](CO)NC(=O)COCCOCCNC(=S)Nc1ccc2c(c1)C(=O)OC21c2ccc(O)cc2Oc2cc(O)ccc21)C(=O)N[C@H](C(=O)N1CCC[C@H]1C(=O)N[C@H]1C/C=C/C[C@H](C(=O)N[C@@H](CC(=O)O)C(=O)N[C@@H](C)C(=O)N[C@@H](CC(=O)O)C(N)=O)NC(=O)[C@H](Cc2ccccc2)NC(=O)[C@H](CCC(N)=O)NC1=O)C(C)C (stereo in doubt; form 1)	> 2000 nM	–
CC(=O)N[C@H](C(=O)N1CCC[C@H]1C(=O)NCC(=O)N[C@@H](CCC(N)=O)C(=O)N[C@@H](Cc1ccc(-c2ccccc2)cc1)C(=O)N[C@@H](CC(=O)O)C(=O)N[C@@H](CC(=O)O)C(=O)N[C@@H](C)C(=O)N[C@@H](CC(=O)O)C(=O)N[C@@H](CCCCNC(=S)Nc1ccc2c(c1)C(=O)OC21c2ccc(O)cc2Oc2cc(O)ccc21)C(N)=O)C(C)C (Ac-VPGQ[Bip]DDADK(FITC)-NH2)	–	447 nM
CC(C)[C@H](NC(=O)[C@H](CCCNC(=N)N)NC(=O)[C@H](CO)NC(=O)COCCOCCNC(=S)Nc1ccc2c(c1)C(=O)OC21c2ccc(O)cc2Oc2cc(O)ccc21)C(=O)N[C@H](C(=O)N1CCC[C@H]1C(=O)N[C@H]1CNC(=O)C[C@H](C(=O)N[C@@H](CC(=O)O)C(=O)N[C@@H](C)C(=O)N[C@@H](CC(=O)O)C(N)=O)NC(=O)[C@H](Cc2ccccc2)NC(=O)[C@H](CCC(N)=O)NC1=O)C(C)C	> 2000 nM	–
CC(=O)N[C@H](C(=O)N1CCC[C@H]1C(=O)NCC(=O)N[C@@H](CCC(N)=O)C(=O)N[C@@H](Cc1ccccc1)C(=O)N[C@@H](CC(=O)O)C(=O)N[C@@H](CC(=O)O)C(=O)N[C@@H](C)C(=O)N[C@@H](CC(C(=O)O)C(=O)O)C(=O)N[C@@H](CCCCNC(=S)Nc1ccc2c(c1)C(=O)OC21c2ccc(O)cc2Oc2cc(O)ccc21)C(N)=O)C(C)C (Ac-VPGQFDDA[Gla]K(FITC)-NH2)	–	245 nM
CC(=O)N[C@H](C(=O)N1CCC[C@H]1C(=O)N[C@H]1C/C=C\CC[C@H](C(=O)N[C@@H](CC(=O)O)C(=O)N[C@@H](C)C(=O)N[C@@H](CC(=O)O)C(=O)N[C@@H](CCCCNC(=S)Nc2ccc3c(c2)C(=O)OC32c3ccc(O)cc3Oc3cc(O)ccc32)C(N)=O)NC(=O)[C@H](Cc2ccccc2)NC(=O)[C@H](CCC(N)=O)NC1=O)C(C)C	> 2000 nM	–
CC(=O)N[C@H](C(=O)N1CCC[C@H]1C(=O)NCC(=O)N[C@@H](CCC(N)=O)C(=O)N[C@@H](Cc1ccc(I)cc1)C(=O)N[C@@H](CC(=O)O)C(=O)N[C@@H](CC(=O)O)C(=O)N[C@@H](C)C(=O)N[C@@H](CC(=O)O)C(=O)N[C@@H](CCCCNC(=S)Nc1ccc2c(c1)C(=O)OC21c2ccc(O)cc2Oc2cc(O)ccc21)C(N)=O)C(C)C (Ac-VPGQ[Phe(4-I)]DDADK(FITC)-NH2)	–	279 nM
CC(=O)N[C@H](C(=O)N1CCC[C@H]1C(=O)N[C@H]1CC/C=C/C[C@@H](C(=O)N[C@@H](CC(=O)O)C(=O)N[C@@H](C)C(=O)N[C@@H](CC(=O)O)C(=O)N[C@@H](CCCCNC(=S)Nc2ccc3c(c2)C(=O)OC32c3ccc(O)cc3Oc3cc(O)ccc32)C(N)=O)NC(=O)[C@H](Cc2ccccc2)NC(=O)[C@H](CCC(N)=O)NC1=O)C(C)C (Ac-VP[Hag]QF[AllylGly]DADK(FITC)-NH2; staple (E) 3-6)	–	562 nM
CC(=O)N[C@H](C(=O)N1CCC[C@H]1C(=O)NCC(=O)N[C@@H](CCC(N)=O)C(=O)N[C@@H](Cc1ccc(F)c(F)c1)C(=O)N[C@@H](CC(=O)O)C(=O)N[C@@H](CC(=O)O)C(=O)N[C@@H](C)C(=O)N[C@@H](CC(=O)O)C(=O)N[C@@H](CCCCNC(=S)Nc1ccc2c(c1)C(=O)OC21c2ccc(O)cc2Oc2cc(O)ccc21)C(N)=O)C(C)C (Ac-VPGQ[Phe(3,4-F2)]DDADK(FITC)-NH2)	–	412 nM
CC(=O)N[C@H](C(=O)N1CCC[C@H]1C(=O)NCC(=O)N[C@@H](CCC(N)=O)C(=O)N[C@@H](Cc1ccc(Br)cc1)C(=O)N[C@@H](CC(=O)O)C(=O)N[C@@H](CC(=O)O)C(=O)N[C@@H](C)C(=O)N[C@@H](CC(=O)O)C(=O)N[C@@H](CCCCNC(=S)Nc1ccc2c(c1)C(=O)OC21c2ccc(O)cc2Oc2cc(O)ccc21)C(N)=O)C(C)C (Ac-VPGQ[Phe(4-Br)]DDADK(FITC)-NH2)	–	317 nM
CC(C)[C@H](NC(=O)[C@H](CCCNC(=N)N)NC(=O)[C@H](CO)NC(=O)COCCOCCNC(=S)Nc1ccc2c(c1)C(=O)OC21c2ccc(O)cc2Oc2cc(O)ccc21)C(=O)N[C@H](C(=O)N1CCC[C@H]1C(=O)N[C@H]1CCCC[C@@H](C(=O)N[C@@H](CC(=O)O)C(=O)N[C@@H](C)C(=O)N[C@@H](CC(=O)O)C(N)=O)NC(=O)[C@H](Cc2ccccc2)NC(=O)[C@H](CCC(N)=O)NC1=O)C(C)C	–	1290 nM
CC(=O)N[C@H](C(=O)N1CCC[C@H]1C(=O)N[C@H]1CC/C=C/CC[C@H](C(=O)N[C@@H](CC(=O)O)C(=O)N[C@@H](C)C(=O)N[C@@H](CC(=O)O)C(=O)N[C@@H](CCCCNC(=S)Nc2ccc3c(c2)C(=O)OC32c3ccc(O)cc3Oc3cc(O)ccc32)C(N)=O)NC(=O)[C@H](Cc2ccccc2)NC(=O)[C@H](CCC(N)=O)NC1=O)C(C)C	> 2000 nM	–
CC(C)[C@H](NC(=O)[C@H](CCCNC(=N)N)NC(=O)[C@H](CO)NC(=O)COCCOCCNC(=S)Nc1ccc2c(c1)C(=O)OC21c2ccc(O)cc2Oc2cc(O)ccc21)C(=O)N[C@H](C(=O)N1CCC[C@H]1C(=O)N[C@H]1CCCC[C@H](C(=O)N[C@@H](CC(=O)O)C(=O)N[C@@H](C)C(=O)N[C@@H](CC(=O)O)C(N)=O)NC(=O)[C@H](Cc2ccccc2)NC(=O)[C@H](CCC(N)=O)NC1=O)C(C)C	> 2000 nM	–
CC(C)[C@H](NC(=O)[C@H](CCCNC(=N)N)NC(=O)[C@H](CO)NC(=O)COCCOCCNC(=S)Nc1ccc2c(c1)C(=O)OC21c2ccc(O)cc2Oc2cc(O)ccc21)C(=O)N[C@H](C(=O)N1CCC[C@H]1C(=O)N[C@H]1CCNC(=O)CC[C@H](C(=O)N[C@@H](CC(=O)O)C(=O)N[C@@H](C)C(=O)N[C@@H](CC(=O)O)C(N)=O)NC(=O)[C@H](Cc2ccccc2)NC(=O)[C@H](CCC(N)=O)NC1=O)C(C)C	> 2000 nM	–
CC(=O)N[C@H](C(=O)N1CCC[C@H]1C(=O)NCC(=O)N[C@@H](CCC(N)=O)C(=O)N[C@@H](Cc1ccc(Cl)cc1)C(=O)N[C@@H](CC(=O)O)C(=O)N[C@@H](CC(=O)O)C(=O)N[C@@H](C)C(=O)N[C@@H](CC(C(=O)O)C(=O)O)C(=O)N[C@@H](CCCCNC(=S)Nc1ccc2c(c1)C(=O)OC21c2ccc(O)cc2Oc2cc(O)ccc21)C(N)=O)C(C)C (Ac-VPGQ[Phe(4-Cl)]DDA[Gla]K(FITC)-NH2)	–	144 nM
CC(=O)N[C@H](C(=O)N1CCC[C@H]1C(=O)NCC(=O)N[C@@H](CCC(N)=O)C(=O)N[C@@H](Cc1ccc(F)cc1)C(=O)N[C@@H](CC(=O)O)C(=O)N[C@@H](CC(=O)O)C(=O)N[C@@H](C)C(=O)N[C@@H](CC(=O)O)C(=O)N[C@@H](CCCCNC(=S)Nc1ccc2c(c1)C(=O)OC21c2ccc(O)cc2Oc2cc(O)ccc21)C(N)=O)C(C)C (Ac-VPGQ[Phe(4-F)]DDADK(FITC)-NH2)	–	391 nM
CC(=O)N[C@H](C(=O)N1CCC[C@H]1C(=O)NCC(=O)N[C@@H](CCC(N)=O)C(=O)N[C@@H](Cc1ccc(Cl)cc1)C(=O)N[C@@H](CC(=O)O)C(=O)N[C@@H](CC(=O)O)C(=O)N[C@@H](C)C(=O)N[C@@H](CC(=O)O)C(=O)N[C@@H](CCCCNC(=S)Nc1ccc2c(c1)C(=O)OC21c2ccc(O)cc2Oc2cc(O)ccc21)C(N)=O)C(C)C (Ac-VPGQ[Phe(4-Cl)]DDADK(FITC)-NH2)	–	250 nM
CC(C)[C@H](NC(=O)[C@H](CCCNC(=N)N)NC(=O)[C@H](CO)NC(=O)COCCOCCNC(=S)Nc1ccc2c(c1)C(=O)OC21c2ccc(O)cc2Oc2cc(O)ccc21)C(=O)N[C@H](C(=O)N1CCC[C@H]1C(=O)N[C@H]1CNC(=O)CC[C@H](C(=O)N[C@@H](CC(=O)O)C(=O)N[C@@H](C)C(=O)N[C@@H](CC(=O)O)C(N)=O)NC(=O)[C@H](Cc2ccccc2)NC(=O)[C@H](CCC(N)=O)NC1=O)C(C)C	> 2000 nM	–
CC(=O)N[C@H](C(=O)N1CCC[C@H]1C(=O)N[C@H]1CCCCCC[C@@H](C(=O)N[C@@H](CC(=O)O)C(=O)N[C@@H](C)C(=O)N[C@@H](CC(=O)O)C(=O)N[C@@H](CCCCNC(=S)Nc2ccc3c(c2)C(=O)OC32c3ccc(O)cc3Oc3cc(O)ccc32)C(N)=O)NC(=O)[C@H](Cc2ccccc2)NC(=O)[C@H](CCC(N)=O)NC1=O)C(C)C	–	> 2000 nM
